The results in this text go back to BindingDB's records for patent US20250109139 (Shanghaitech University, 2025).

pKi: −log10 of the molar value.

The experiment concerns the target D(2) dopamine receptor (Homo sapiens, UniProt P14416). The experiment in a line: Radioligand Competition Binding Assay. The method, then: A 10 cm culture dish was used for transfection with […] of dopamine D2 receptors and 40 μL of polyethylenimine (PEI hereafter). […] A vacuum pump was used to suck off the culture medium, 3 mL of lysis buffer was added to each culture dish, and the cells were placed in a 4° C. cold room for 10 minutes. After the cells were detached, the cells were transferred to a 15 mL centrifuge tube and centrifuged at 1500 rpm for 5 minutes at 4° C., and the supernatant was discarded. The cell pellet was transferred to a tissue homogenizer, and 3 mL of lysis buffer was added and fully ground until the cells were broken. Then, cell suspension was equally aliquoted into several EP tubes, centrifuged at 12000 rpm for 5 minutes at 4° C., and the supernatant was discarded. […] First, a standard binding buffer was added to the cell membrane component containing the dopamine D2 receptors, and the cell membrane was disrupted and resuspended with an electric tissue homogenizer. 30 μL of membrane protein suspension was added to each well of a 96-well plate. […] Next, 30 μL of [3H]-Methylspiperone was added to each well of the 96-well plate. […] The machine readout value reflected the amount of [3H]-Methylspiperone bound on the membrane, and after further data processing, the affinity Ki values of different compounds for the dopamine D2 receptors were obtained.
For orientation: Displacement assays read how much labelled ligand stays bound in the presence of the test substance.

Sequence of D(2) dopamine receptor (P14416 whole entry): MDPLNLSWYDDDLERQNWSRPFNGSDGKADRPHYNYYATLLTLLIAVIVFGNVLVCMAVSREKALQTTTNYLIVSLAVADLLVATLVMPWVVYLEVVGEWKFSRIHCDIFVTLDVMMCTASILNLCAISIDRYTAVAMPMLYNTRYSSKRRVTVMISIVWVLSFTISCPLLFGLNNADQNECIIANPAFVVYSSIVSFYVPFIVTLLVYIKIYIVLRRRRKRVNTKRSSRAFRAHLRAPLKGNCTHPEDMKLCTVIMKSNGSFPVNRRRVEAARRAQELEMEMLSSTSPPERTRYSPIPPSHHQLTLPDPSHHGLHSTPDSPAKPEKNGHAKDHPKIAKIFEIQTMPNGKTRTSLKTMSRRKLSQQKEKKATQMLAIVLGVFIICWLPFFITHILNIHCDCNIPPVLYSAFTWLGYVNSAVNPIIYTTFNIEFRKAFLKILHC

In general, pKi refers to −log10 of the Ki, conventionally taken in molar units. Low values mean a high Ki, high ones a low Ki. For the compound `CCOc1cccc2c3c(oc12)CN(CCCCc1ccc2ccc(=O)[nH]c2c1)CC3` [US20250109139, Compound I-A25], the pKi is 7.42.
